{"source": "paper PMC7386434", "about": "(Organic letters, 2010)", "type_in_all_cases": "cell-based", "key": {"[1]": {"test_system": "human embryonic kidney cell line (HEK293)", "test": "Antiproliferative activity, HEK293 cells", "settings": "HEK293, read-out: GI50 HEK293"}, "[2]": {"test_system": "human lung cancer cell line (A549)", "test": "Antiproliferative activity, A549 cells", "settings": "A549, read-out: GI50 A549"}, "[3]": {"test_system": "colorectal carcinoma cell line HCT-116", "test": "Antiproliferative activity, HCT-116 cells", "settings": "Homo sapiens, HCT-116, read-out: GI50 HCT-116"}, "[4]": {"test_system": "human embryonic lung fibroblast (HLF) cells", "test": "Antiproliferative activity, HLF cells", "settings": "read-out: GI50 HLF"}}, "data": [{"smiles": "CCCCCCCC(=O)SCC/C=C/[C@@H]1CC(=O)NCc2nc(cs2)C2=N[C@@](C)(CS2)C(=O)N[C@@H](C(C)C)C(=O)O1", "note": "[compound 1, largazole]", "values": [{"measurement": "GI50", "setting": "[1]", "value": 1360, "unit": "nM"}, {"measurement": "GI50", "setting": "[2]", "value": 320, "unit": "nM"}, {"measurement": "GI50", "setting": "[3]", "value": 80, "unit": "nM"}, {"measurement": "GI50", "setting": "[4]", "value": 980, "unit": "nM"}]}]}
